Laboratory results: publication PMC10374968, “Drosophila class-I myosins that can impact left-right asymmetry have distinct ATPase kinetics” (The Journal of Biological Chemistry, 2023)
Read-outs that look alike come from different tables or passages of the source.

Columns and labels:
[1] = biological target: T1, myo1D (myosin-1D; myo31DF) (Drosophila melanogaster, UniProt Q23978); conditions: read-out: Myo1D; rapid-equilibrium binding step to actomyosin (printed in μM, used as association constant in Equation 2); KMg25 pH 7.0, 1 mM MgCl2; 20 C
Source text: stopped-flow MgATP-induced dissociation from pyrene-actin, hyperbolic fit on myo1D (myosin-1D; myo31DF)

[2] = biological target: myo1C (myosin-1C; myo61F) (Drosophila melanogaster, UniProt Q23979); conditions: read-out: Myo1C; rapid-equilibrium binding step to actomyosin (printed in μM, used as association constant in Equation 2); KMg25 pH 7.0, 1 mM MgCl2; 20 C
Source text: stopped-flow MgATP-induced dissociation from pyrene-actin, hyperbolic fit on myo1C (myosin-1C; myo61F)

[3] = biological target: T1, myo1D (myosin-1D; myo31DF); test: stopped-flow pyrene-actin fluorescence, slow-phase amplitude vs MgADP, quadratic fit; format: binding; set-up: full-length, C-terminal FLAG-Avi tags kept (biotinylated for gliding); baculovirus, Sf9 or Hi5 insect cells; heavy chain 117 kDa, calmodulin light chains; with Calmodulin (Gallus gallus, recombinant); Actin, alpha skeletal muscle (Oryctolagus cuniculus); conditions: actomyosin complex; chased with 1 mM MgATP; KMg25: 10 mM Mops pH 7.0, 25 mM KCl, 1 mM MgCl2, 1 mM EGTA, 1 mM DTT; 20 C

T1 sequence (Q23978 whole entry): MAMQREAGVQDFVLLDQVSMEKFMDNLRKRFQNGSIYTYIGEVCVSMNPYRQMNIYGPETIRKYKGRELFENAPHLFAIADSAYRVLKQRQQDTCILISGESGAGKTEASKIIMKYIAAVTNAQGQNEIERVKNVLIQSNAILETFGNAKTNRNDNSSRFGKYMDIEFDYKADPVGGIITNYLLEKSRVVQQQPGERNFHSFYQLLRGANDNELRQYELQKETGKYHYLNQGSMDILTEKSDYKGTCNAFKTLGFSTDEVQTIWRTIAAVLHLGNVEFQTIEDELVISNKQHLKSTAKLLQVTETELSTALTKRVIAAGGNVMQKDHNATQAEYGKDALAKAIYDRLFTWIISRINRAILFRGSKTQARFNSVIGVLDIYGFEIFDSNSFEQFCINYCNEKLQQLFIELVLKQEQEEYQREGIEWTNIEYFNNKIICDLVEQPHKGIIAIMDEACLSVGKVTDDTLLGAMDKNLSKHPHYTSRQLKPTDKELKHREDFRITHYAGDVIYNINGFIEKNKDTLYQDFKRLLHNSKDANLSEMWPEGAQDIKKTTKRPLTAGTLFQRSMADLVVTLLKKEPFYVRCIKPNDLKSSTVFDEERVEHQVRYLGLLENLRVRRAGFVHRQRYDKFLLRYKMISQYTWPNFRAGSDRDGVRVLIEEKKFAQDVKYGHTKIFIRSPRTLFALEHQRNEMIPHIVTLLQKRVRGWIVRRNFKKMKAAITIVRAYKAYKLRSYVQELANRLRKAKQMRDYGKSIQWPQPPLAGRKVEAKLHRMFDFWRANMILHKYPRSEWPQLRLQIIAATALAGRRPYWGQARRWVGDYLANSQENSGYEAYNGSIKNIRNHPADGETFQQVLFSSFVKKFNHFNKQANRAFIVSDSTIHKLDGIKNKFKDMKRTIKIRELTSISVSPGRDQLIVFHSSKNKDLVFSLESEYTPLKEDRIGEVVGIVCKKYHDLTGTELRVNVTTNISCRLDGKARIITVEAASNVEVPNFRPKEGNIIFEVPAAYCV
Sequence of myo1C (myosin-1C; myo61F) (Q23979 whole entry): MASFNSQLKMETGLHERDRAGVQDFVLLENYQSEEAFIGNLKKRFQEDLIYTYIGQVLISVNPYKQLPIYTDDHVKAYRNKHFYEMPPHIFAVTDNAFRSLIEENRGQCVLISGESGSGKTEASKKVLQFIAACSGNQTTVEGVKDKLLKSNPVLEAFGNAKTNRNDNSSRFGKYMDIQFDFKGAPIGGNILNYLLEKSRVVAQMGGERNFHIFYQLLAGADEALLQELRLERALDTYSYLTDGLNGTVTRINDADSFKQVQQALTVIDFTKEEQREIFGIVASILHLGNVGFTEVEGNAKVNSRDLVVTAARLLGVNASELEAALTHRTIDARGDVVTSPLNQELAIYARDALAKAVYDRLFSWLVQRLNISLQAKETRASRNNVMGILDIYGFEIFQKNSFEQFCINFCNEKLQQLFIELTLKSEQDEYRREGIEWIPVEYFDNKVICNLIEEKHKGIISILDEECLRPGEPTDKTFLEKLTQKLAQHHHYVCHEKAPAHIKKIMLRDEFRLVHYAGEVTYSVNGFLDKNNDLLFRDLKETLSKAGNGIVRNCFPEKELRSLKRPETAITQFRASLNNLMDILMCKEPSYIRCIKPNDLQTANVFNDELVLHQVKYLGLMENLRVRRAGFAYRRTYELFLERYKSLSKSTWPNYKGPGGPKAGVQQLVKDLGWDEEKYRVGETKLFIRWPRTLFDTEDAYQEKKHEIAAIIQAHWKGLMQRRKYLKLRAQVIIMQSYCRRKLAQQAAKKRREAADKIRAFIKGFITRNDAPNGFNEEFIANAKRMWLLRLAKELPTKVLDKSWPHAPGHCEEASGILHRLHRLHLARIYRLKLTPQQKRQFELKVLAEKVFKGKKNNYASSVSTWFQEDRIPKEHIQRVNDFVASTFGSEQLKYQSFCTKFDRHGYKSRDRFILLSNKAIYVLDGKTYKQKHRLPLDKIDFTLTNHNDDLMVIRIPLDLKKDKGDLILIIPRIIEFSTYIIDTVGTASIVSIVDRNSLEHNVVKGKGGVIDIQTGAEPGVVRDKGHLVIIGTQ

SMILES	Kd [1] [µM]	Kd [2] [µM]	Kd [3] [µM]
Nc1ncnc2c1ncn2[C@@H]1O[C@H](COP(=O)(O)OP(=O)(O)OP(=O)(O)O)[C@@H](O)[C@H]1O [MgATP]	118 ± 15	73 ± 11	–
Nc1ncnc2c1ncn2[C@@H]1O[C@H](COP(=O)(O)OP(=O)(O)O)[C@@H](O)[C@H]1O [MgADP]	–	–	0.044 ± 0.002
